# Source: patent US11225505B2, “Antimicrobial polymyxin derivative compounds” (MONASH UNIVERSITY, priority 2015, dated 2022)
# Where a SMILES comes first, the peptide text is derived from it. Bridges are numbered along the chain shown (N, C = ends). [ ]: non-standard residue; d: D form. The star is where a group is joined. Benzofuran(2-CO) = O=C(c1cc2ccccc2o1)*; X35 = O=C(c1cc(-c2ccc(Cl)cc2)on1)*; X38 = O=C(c1cc2sccc2[nH]1)*; dNle = CCCC[C@@H](N)C(=O)O; dNva = CCC[C@@H](N)C(=O)O; X29 = O=C(c1cc(Cl)ccn1)*; X59 = Cn1c(Br)ccc1C(=O)*; Dab = NCC[C@H](N)C(=O)O; X60 = O=C(c1cnc(Br)s1)*; Abu = CC[C@H](N)C(=O)O; Dap = NC[C@H](N)C(=O)O; X71 = O=C(c1sccc1Cl)*
# What was measured:
# Format in all cases: cell-based
# [1] = tested on: Acinetobacter baumannii ATCC 17978; conditions: ATCC 17978
# How it was run: (§1)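 Susceptibility of polymyxin-susceptible Gram-negative strains, including multidrug-resistant clinical isolates PA022 and AB034, was tested by broth microdilution. Cation-adjusted Mueller-Hinton broth and the CLSI M100-S24 method were used.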
# [2] = tested on: Acinetobacter baumannii FADDI-AB034; conditions: FADDI-AB034
# How it was run: as §1
# [3] = tested on: Enterobacter cloacae FADDI-EC001; conditions: FADDI-EC001
# How it was run: as §1
# [4] = tested on: Enterobacter cloacae FADDI-EC003; conditions: FADDI-EC003
# How it was run: as §1
# [5] = tested on: Enterobacter cloacae FADDI-EC006; conditions: FADDI-EC006
# How it was run: as §1
# [6] = tested on: Klebsiella pneumoniae FADDI-KP022; conditions: FADDI-KP022
# How it was run: as §1
# [7] = tested on: Klebsiella pneumoniae FADDI-KP032; conditions: FADDI-KP032
# How it was run: as §1
# [8] = tested on: Klebsiella pneumoniae Kp BM1; conditions: Kp BM1
# How it was run: as §1
# [9] = tested on: Pseudomonas aeruginosa ATCC 27853; conditions: ATCC 27853
# How it was run: as §1
# [10] = tested on: Pseudomonas aeruginosa FADDI-PA01; conditions: FADDI-
# How it was run: as §1
# [11] = tested on: Pseudomonas aeruginosa FADDI-PA022; conditions: FADDI-PA022
# How it was run: as §1
# [12] = tested on: Pseudomonas aeruginosa FADDI-PA038; conditions: FADDI-PA038
# How it was run: as §1
# [13] = tested on: Acinetobacter baumannii FADDI-AB030; test: microbe, parasite or virus in culture; conditions: FADDI-AB030
# How it was run: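 Lipopeptide TFA salts tested against the multidrug-resistant clinical isolate by CLSI (M100-S24) broth microdilution in cation-adjusted Mueller-Hinton broth, with polymyxin B sulphate as control; MIC read.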
SMILES,Minimum inhibitory concentration [1] [mg/L],Minimum inhibitory concentration [2] [mg/L],Minimum inhibitory concentration [3] [mg/L],Minimum inhibitory concentration [4] [mg/L],Minimum inhibitory concentration [5] [mg/L],Minimum inhibitory concentration [6] [mg/L],Minimum inhibitory concentration [7] [mg/L],Minimum inhibitory concentration [8] [mg/L],Minimum inhibitory concentration [9] [mg/L],Minimum inhibitory concentration [10] [mg/L],Minimum inhibitory concentration [11] [mg/L],Minimum inhibitory concentration [12] [mg/L],Minimum inhibitory concentration [13] [mg/L]
CC[C@@H]1NC(=O)[C@@H](CC(C)C)NC(=O)[C@H](CCN)NC(=O)[C@@H](NC(=O)[C@H](CN)NC(=O)[C@@H](NC(=O)[C@H](CCN)NC(=O)c2sccc2Cl)[C@@H](C)O)CCNC(=O)[C@H]([C@@H](C)O)NC(=O)[C@H](CCN)NC(=O)[C@H](CCN)NC1=O [Compound 89] (X71-[Dab]T[Dap][Dab][Dab][dL][Abu][Dab][Dab]T; lactam 4-C),4,4,<0.125,<0.125,<0.125,<0.125,0.25,<0.125,0.25,0.25,0.25,1,2
CC[C@@H]1NC(=O)[C@@H](CC(C)C)NC(=O)[C@H](CCN)NC(=O)[C@@H](NC(=O)[C@H](CN)NC(=O)[C@@H](NC(=O)[C@H](CCN)NC(=O)c2cc3sccc3[nH]2)[C@@H](C)O)CCNC(=O)[C@H]([C@@H](C)O)NC(=O)[C@H](CCN)NC(=O)[C@H](CCN)NC1=O [Compound 90] (X38-[Dab]T[Dap][Dab][Dab][dL][Abu][Dab][Dab]T; lactam 4-C),2,1,<0.125,<0.125,0.5,<0.125,0.25,0.25,0.5,0.25,0.5,0.5,0.5
CC[C@@H]1NC(=O)[C@@H](CC(C)C)NC(=O)[C@H](CCN)NC(=O)[C@@H](NC(=O)[C@H](CN)NC(=O)[C@@H](NC(=O)[C@H](CCN)NC(=O)c2cnc(Br)s2)[C@@H](C)O)CCNC(=O)[C@H]([C@@H](C)O)NC(=O)[C@H](CCN)NC(=O)[C@H](CCN)NC1=O [Compound 91] (X60-[Dab]T[Dap][Dab][Dab][dL][Abu][Dab][Dab]T; lactam 4-C),2,2,0.5,1,0.5,<0.125,0.5,0.5,0.5,0.5,0.5,1,1
CC[C@@H]1NC(=O)[C@@H](CC(C)C)NC(=O)[C@H](CCN)NC(=O)[C@@H](NC(=O)[C@H](CN)NC(=O)[C@@H](NC(=O)[C@H](CCN)NC(=O)c2cc3ccccc3o2)[C@@H](C)O)CCNC(=O)[C@H]([C@@H](C)O)NC(=O)[C@H](CCN)NC(=O)[C@H](CCN)NC1=O [Compound 92] ({Benzofuran(2-CO)}-[Dab]T[Dap][Dab][Dab][dL][Abu][Dab][Dab]T; lactam 4-C),1,0.5,<0.125,0.25,<0.125,<0.125,0.5,0.5,0.5,0.5,0.5,0.5,0.5
CC[C@@H]1NC(=O)[C@@H](CC(C)C)NC(=O)[C@H](CCN)NC(=O)[C@@H](NC(=O)[C@H](CN)NC(=O)[C@@H](NC(=O)[C@H](CCN)NC(=O)c2ccc(Br)n2C)[C@@H](C)O)CCNC(=O)[C@H]([C@@H](C)O)NC(=O)[C@H](CCN)NC(=O)[C@H](CCN)NC1=O [Compound 93] (X59-[Dab]T[Dap][Dab][Dab][dL][Abu][Dab][Dab]T; lactam 4-C; N-terminus assumed),2,1,<0.125,0.5,0.25,<0.125,0.5,0.25,0.5,0.5,0.5,1,0.5
CC[C@@H]1NC(=O)[C@@H](CC(C)C)NC(=O)[C@H](CCN)NC(=O)[C@@H](NC(=O)[C@H](CN)NC(=O)[C@@H](NC(=O)[C@H](CCN)NC(=O)c2cc(-c3ccc(Cl)cc3)on2)[C@@H](C)O)CCNC(=O)[C@H]([C@@H](C)O)NC(=O)[C@H](CCN)NC(=O)[C@H](CCN)NC1=O [Compound 94] (X35-[Dab]T[Dap][Dab][Dab][dL][Abu][Dab][Dab]T; lactam 4-C),1,0.5,0.25,0.25,<0.125,<0.125,<0.125,0.5,0.5,0.5,0.5,1,0.25
CCCC[C@H]1NC(=O)[C@H](CCN)NC(=O)[C@@H](NC(=O)[C@H](CN)NC(=O)[C@@H](NC(=O)[C@H](CCN)NC(=O)c2cc(Cl)ccn2)[C@@H](C)O)CCNC(=O)[C@H]([C@@H](C)O)NC(=O)[C@H](CCN)NC(=O)[C@H](CCN)NC(=O)[C@H](CC)NC1=O [Compound 95] (X29-[Dab]T[Dap][Dab][Dab][dNle][Abu][Dab][Dab]T; lactam 4-C),0.25,0.25,<0.125,0.25,<0.125,0.25,<0.125,0.5,0.25,<0.125,0.25,1,0.25
CCC[C@H]1NC(=O)[C@H](CCN)NC(=O)[C@@H](NC(=O)[C@H](CN)NC(=O)[C@@H](NC(=O)[C@H](CCN)NC(=O)c2cc(Cl)ccn2)[C@@H](C)O)CCNC(=O)[C@H]([C@@H](C)O)NC(=O)[C@H](CCN)NC(=O)[C@H](CCN)NC(=O)[C@H](CC)NC1=O [Compound 96] (X29-[Dab]T[Dap][Dab][Dab][dNva][Abu][Dab][Dab]T; lactam 4-C),1,1,0.25,0.5,0.5,0.25,0.5,1,0.25,0.25,0.25,1,2
CC(C)C[C@H]1NC(=O)[C@H](CCN)NC(=O)[C@@H](NC(=O)[C@H](CN)NC(=O)[C@@H](NC(=O)[C@H](CCN)NC(=O)c2cc(Cl)ccn2)[C@@H](C)O)CCNC(=O)[C@H]([C@@H](C)O)NC(=O)[C@H](CCN)NC(=O)[C@H](CCN)NC(=O)[C@H](C)NC1=O [Compound 97] (X29-[Dab]T[Dap][Dab][Dab][dL]A[Dab][Dab]T; lactam 4-C),2,2,<0.125,0.25,0.25,<0.125,0.5,0.25,0.25,0.25,0.25,2,2
